Test results reported in ChEMBL document CHEMBL2010750, “Penicillin inhibitors of purple acid phosphatase” (Bioorg Med Chem Lett, 2012).
Calls of active or inactive are those of the source. No cut-off for these calls is given here.

Experiments:
Sus scrofa [1] = species on record: Sus scrofa; test: Uncompetitive inhibition of pig PAP using para-nitrophenol as substrate at pH 4.9 preincubated for 10 mins by UV-visible spectrophotometry
Sus scrofa [2] = species on record: Sus scrofa; test: Competitive inhibition of pig PAP using para-nitrophenol as substrate at pH 4.9 preincubated for 10 mins by UV-visible spectrophotometry

Compound | Kiuc (Sus scrofa [1]) | Kic (Sus scrofa [2])
CC1(C)S[C@@H]2[C@H](NC(=O)Cc3ccccc3)C(=O)N2[C@H]1C(=O)O | inactive | inactive
CC1(C)S[C@@H]2[C@H](NC(=O)c3ccc(C(=O)c4cccc([N+](=O)[O-])c4)cc3)C(=O)N2[C@H]1C(=O)O | inactive | 23 µM
CC1(C)S[C@@H]2[C@H](NC(=O)c3ccc(C(=O)c4ccccc4Cl)cc3)C(=O)N2[C@H]1C(=O)O | inactive | 32 µM
CC(=O)Oc1ccc(C(=O)N[C@@H]2C(=O)N3[C@@H]2SC(C)(C)[C@@H]3C(=O)O)cc1 | inactive | 53 µM
CC1(C)S[C@@H]2[C@H](NC(=O)c3ccc(C(=O)c4ccc([N+](=O)[O-])cc4)cc3)C(=O)N2[C@H]1C(=O)O | inactive | 17 µM
CC1(C)S[C@@H]2[C@H](NC(=O)c3ccc(C(=O)c4ccccc4)cc3)C(=O)N2[C@H]1C(=O)O | inactive | 26 µM
Cc1ccc(C(=O)c2cccc(C(=O)N[C@@H]3C(=O)N4[C@@H]3SC(C)(C)[C@@H]4C(=O)O)c2)cc1 | inactive | 60 µM
CC1(C)S[C@@H]2[C@H](NC(=O)c3ccc(C(=O)c4ccc(Cl)cc4)cc3)C(=O)N2[C@H]1C(=O)O | inactive | 12 µM
CC1(C)S[C@@H]2[C@H](NC(=O)c3cccc(C(=O)N4CCCCC4)c3)C(=O)N2[C@H]1C(=O)O | 491 µM | 241 µM
